One data set concerns HepG-2 cell line. Put plainly: MTT cytotoxicity on HepG-2 cell line. The note with it: 24 hours. The class given is cell-based, human.
The next data set concerns A549 tumor model. Put plainly: Anti-tumor effect, A549 subcutaneous tumor model. The class given is in vivo.
Another data set relates to A549/DDP tumor model. Description: Anti-tumor effect, A549/DDP subcutaneous tumor model. The class given is in vivo, nude mice. To be noted: platinum 1 mg/kg once every 5 days, 25 days.
The nature of data set [1]: Serum ALT, AST, ALP and urea nitrogen after treatment. The class given is in vivo, Balb/c mice. The note with it: 7 days after complete injection; tail vein, once every 5 days, 5 administrations. As for the experimental part: 12. […] Each mouse was administered via the tail vein (1 mg/mL, once every 5 days). After a total of 5 administrations for 25 days, each mouse was taken by eyeball blood sampling at 7, 14, 21, and 28 days after administration. A 0.5 mL blood sample from a mouse was placed overnight at 4° C. and centrifuged at 1000 rpm for 5 min. The upper clarified serum 200 μL was taken out to measure the alanine aminotransferase (ALT), aspartate aminotransferase (AST), alkaline phosphatase (ALP) and urea nitrogen (Urea) contents.

Here are results for 1 compound from patent US12364667B2, “Anti-tumor platinum-based drug mineralized protein nanoparticle, preparation method therefor and use thereof” (SOOCHOW UNIVERSITY, priority 2019, dated 2025).

Procedure for HepG-2 cell line: Placing the plate in a cell incubator for 12 hours at constant temperature. […] After 24 hours in the incubator, replace the culture medium, add 10 μL of MTT (3-(4,5-dimethylthiazol-2-yl)-2,5-diphenyltetrazolium bromide) PBS (phosphate-buffered saline) solution with a concentration of 5 mg/mL, discard the culture medium after 4 hours, add 200 μL of DMSO (dimethylsulfoxide), shake for 10 minutes, measure the absorbance value at 490 nm with a microplate reader.

`N.N.[Cl][Pt][Cl]` [cisplatin]: the “IC50 for HepG-2 cell line” value in the data set with HepG-2 cell line came out at 12.6 µg/mL. Besides, the “effect on tumor growth” value in the data set on A549 tumor model (A549 tumor model, platinum 1 mg/kg once every 5 days, 25 days) is “a certain tumor-inhibiting effect”; in the data set with A549/DDP tumor model it was “a certain tumor-inhibiting effect”. Moreover, the “condition of the nude mice during the observation period” value in the data set on A549 tumor model (mouse, in vivo) was “in poor condition and lost weight”. The “serum urea nitrogen content versus control group” value in data set [1] is recorded as “significantly different from that of the control group”.
